Structures can show the parent of a compound that is named as a salt.
Tests used:
c-Raf-1 = assay: Western blot analysis of protein levels; format: cell-based, human; conditions: PC3 cells, 10 μM FSAHA in the presence of 1 mM BLT
Method: (§1) PC3 cells were lysed using cell lysis buffer (0.1% NP-40, 50 mM HEPES (pH 7.4), 250 mM NaCl, 1 mM dithiothreitol, 1 mM EDTA, 1 mM NaF, 10 mM β-glycerophosphate, 0.1 mM sodium orthovanadate, 1 μl/ml of protease inhibitor cocktail set III (Calbiochem, USA) and 1 mM phenylmethylsulfonyl fluoride). Lysates were centrifuged at 12,000 rpm for 10 min (4° C.), the protein supernatant collected and total protein concentrations determined using Biorad DC Protein assay reagents (Biorad, CA, USA). Proteins were separated by sodium do-decyl sulfate-polyacrylamide gel electrophoresis using 10% gels and transferred electrophoretically to 0.45 μm Nitrocellulose membranes. Membranes were blocked in blocking buffer containing 5% non-fat dry milk in Tris buffered saline (pH 7.6) and 0.1% Tween-20 and incubated overnight at 4° C. with primary antibodies as follows. c-Raf, 1:1000, (Cell Signaling Technology (CST), MA, USA), Cdk4, 1:2000 (CST, MA, USA), Hsp70, 1:2000 (Stressgen, Canada) and GAPDH, 1:5000 (Stressgen, Canada). This was followed by 1 hour incubation with horseradish peroxidase-conjugated secondary anti-rabbit (CST MA, USA) and anti-mouse (CST, MA, USA) antibodies at dilutions of 1:1000 and 1:2000 respectively. Membranes were […] with enhanced chemiluminescence reagents (LumiGLO & Peroxide, CST MA. USA) for 1 minute and exposed to hyperfilm (Amersham Biosciences, USA), which was developed on a Konica SRX-101 automatic developer (Konica, Tokyo, Japan).

cdk4 = assay: Western blot analysis of protein levels; format: cell-based, human; conditions: PC3 cells, 10 μM FSAHA in the presence of 1 mM BLT
Method: as §1

Hsp70 = assay: Western blot analysis of protein levels; format: cell-based, human; conditions: PC3 cells, 10 μM FSAHA in the presence of 1 mM BLT
Method: as §1

[1] = In vivo toxicity of BLT after intraperitoneal injection; conditions: intraperitoneal 100 mg/kg once a week on three subsequent weeks
subcutaneous PC3 tumors = assay: In vivo 19F MRS of BLT in subcutaneous PC3 tumors; conditions: intraperitoneal 100 mg/kg, 4.7 T
Method: As expected, the TFA peak could not be easily resolved in our preliminary in vivo studies. Intratumoral BLT levels may be higher in HDACI-treated tumors compared to controls, and therefore tumoral BLT levels may be used to assess HDAC activity in vivo. Downstream metabolic biomarkers also may be assessed in our preliminary studies. We were able to acquire a ^31P spectrum from PC3 subcutaneous tumors in 30 minutes providing a means for monitoring PC levels. This is consistent with previous studies in which an increase in PC could be monitored as an indicator of response to 17AAG treatment. ^1H MRS, with its greater sensitivity compared to ^31P, could also be used to monitor the total choline signal as a downstream metabolic marker of response to HDAC inhibition.

Time the BLT signal remained detectable within the tumor region (subcutaneous PC3 tumors) | MRS detectability in tumor (subcutaneous PC3 tumors; temporal resolution 5 minutes) | Compound | c-Raf-1 protein level (Western blot) (c-Raf-1) | cdk4 protein level (Western blot) (cdk4) | Induction of Hsp70 (Western blot) (Hsp70) | Toxicity to the animal [1]
 |  | O=C(CCCCCCC(=O)Nc1ccc(F)cc1)NO [FSAHA, 4-Fluorosuberanilohydroxamic acid] | depletion | depletion | not observed | 
over 2 hours | MRS visible BLT signal | CC(C)(C)OC(=O)N[C@@H](CCCCNC(=O)C(F)(F)F)C(=O)O [BLT, Boc-Lys-TFA-OH] |  |  |  | no detectable toxicity

Source: patent US20100062465A1, “Detection of Histone Deacetylase Inhibition” (priority 2006, published 2010)
